According to PubChem BioAssay AID2060897 (Molecular Pharmacology Branch, DTP, NCI, 2025):

System: 966289-007-R4-J1-PDC complex spheroid viability
Assay: Anticancer human tumor 966289-007-R4-J1-PDC patient-derived pancreatic adenocarcinoma cell line growth inhibition [RAS]
Details: for IC50: curve of first compound; for viability, T/C: stronger effect = lower value
In short: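 Multi-cell-type spheroids: tumor cells plus HUVEC endothelial cells and mesenchymal stem cells. RAS-pathway inhibitors were combined with targeted agents, each dosed in half-log steps down from clinical Cmax, or from 10 microM when Cmax was unknown.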
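Also: spheroids exposed to agents for one week before readout.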
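For viability, T/C in this document: percent viability relative to DMSO vehicle control wells as 100%.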

CC(C)NCC(C(=O)N1CCN(c2ncnc3c2C(C)CC3O)CC1)c1ccc(Cl)cc1 (configuration not stated) + C#Cc1c(F)ccc2cc(O)cc(-c3ncc4c(N5CC6CCC(C5)N6)nc(OCC56CCCN5CC(F)C6)nc4c3F)c12
IC50 (second compound 0.0316 µM): 6.4 µM | IC50 (second compound 0.1 µM): 6.04 µM | IC50 (second compound 0.316 µM): 5.61 µM | IC50 (second compound 1 µM): 6.95 µM | IC50 (second compound 3.16 µM): 5.64 µM | IC50 (second compound 10 µM): 2.76 µM | viability, T/C (second compound 0.0316 µM, first compound 0.0316 µM): 98.7% | viability, T/C (second compound 0.0316 µM, first compound 0.1 µM): 111% | viability, T/C (second compound 0.0316 µM, first compound 0.316 µM): 108% | viability, T/C (second compound 0.0316 µM, first compound 1 µM): 111% | viability, T/C (second compound 0.0316 µM, first compound 3.16 µM): 66.9% | viability, T/C (second compound 0.0316 µM, first compound 10 µM): 39.3% | viability, T/C (second compound 0.1 µM, first compound 0.0316 µM): 103% | viability, T/C (second compound 0.1 µM, first compound 0.1 µM): 109% | viability, T/C (second compound 0.1 µM, first compound 0.316 µM): 124% | viability, T/C (second compound 0.1 µM, first compound 1 µM): 101% | viability, T/C (second compound 0.1 µM, first compound 3.16 µM): 66.4% | viability, T/C (second compound 0.1 µM, first compound 10 µM): 37.4% | viability, T/C (second compound 0.316 µM, first compound 0.0316 µM): 106% | viability, T/C (second compound 0.316 µM, first compound 0.1 µM): 103% | viability, T/C (second compound 0.316 µM, first compound 0.316 µM): 128% | viability, T/C (second compound 0.316 µM, first compound 1 µM): 102% | viability, T/C (second compound 0.316 µM, first compound 3.16 µM): 66.6% | viability, T/C (second compound 0.316 µM, first compound 10 µM): 33.6% | viability, T/C (second compound 1 µM, first compound 0.0316 µM): 104% | viability, T/C (second compound 1 µM, first compound 0.1 µM): 106% | viability, T/C (second compound 1 µM, first compound 0.316 µM): 111% | viability, T/C (second compound 1 µM, first compound 1 µM): 117% | viability, T/C (second compound 1 µM, first compound 3.16 µM): 74.6% | viability, T/C (second compound 1 µM, first compound 10 µM): 38.6% | viability, T/C (second compound 3.16 µM, first compound 0.0316 µM): 116% | viability, T/C (second compound 3.16 µM, first compound 0.1 µM): 106% | viability, T/C (second compound 3.16 µM, first compound 0.316 µM): 114% | viability, T/C (second compound 3.16 µM, first compound 1 µM): 96.7% | viability, T/C (second compound 3.16 µM, first compound 3.16 µM): 67.5% | viability, T/C (second compound 3.16 µM, first compound 10 µM): 33% | viability, T/C (second compound 10 µM, first compound 0.0316 µM): 110% | viability, T/C (second compound 10 µM, first compound 0.1 µM): 111% | viability, T/C (second compound 10 µM, first compound 0.316 µM): 125% | viability, T/C (second compound 10 µM, first compound 1 µM): 103% | viability, T/C (second compound 10 µM, first compound 3.16 µM): 43% | viability, T/C (second compound 10 µM, first compound 10 µM): 26.1%
